The values below come from patent US8124793B2, “Derivatives of ethylene methanedisulfonate as cancer chemotherapeutic agents” (priority 2007, dated 2012).

What all share (format): cell-based
Assay [1] relates to CCRF-CEM. Briefly: NCI screen, growth of human tumor cells: Leukemia CCRF-CEM. The note with it: for % Growth: CCRF-CEM. On the procedure:
(§1) In the NCI screening process, each compound was tested and described by a minimum of 60 data points. The test data include, but are not limited to the type of cancer, the molar concentration used in the screen, and the percent growth of the cancer. In some cases, NMR and elemental analysis were used for structural assignment.

The test system of assay [2] is K562. As to the kind of experiment: NCI screen, growth of human tumor cells: Leukemia K562. On the procedure: as §1
Assay [3] deals with MOLT-4. As to the kind of experiment: NCI screen, growth of human tumor cells: Leukemia MOLT-4. The note with it: for percent of growth of human tumor cells: MOLT-4 (Leukemia), 10^−4 molar. Here is the method: as §1
For assay [4], the system named is SR. As to the kind of experiment: NCI screen, growth of human tumor cells: Leukemia SR. To be noted: for % Growth: SR; for percent of growth of human tumor cells: SR (Leukemia). On the procedure:
as §1

For assay [5], the system named is NCI-H460. Briefly: NCI screen, growth of human tumor cells: Non-Small Cell Lung NCI-H460. The note with it: NCI-H460 (Non-Small Cell Lung), 10^−4 molar. Here is the method: as §1
Assay [6] deals with SF-295. Briefly: NCI screen, growth of human tumor cells: CNS Cancer SF-295. Here is the method:
as §1

Assay [7] deals with SF-539. As to the kind of experiment: NCI screen, growth of human tumor cells: CNS Cancer SF-539. To be noted: for percent of growth of human tumor cells: SF-539 (CNS Cancer), 10^−4 molar. On the procedure: as §1
Assay [8] deals with ACHN. Briefly: NCI screen, growth of human tumor cells: Renal Cancer ACHN. To be noted: ACHN (Renal Cancer), 10^−4 molar. Here is the method:
as §1

Assay [9] has as its system human cancer cells. As to the kind of experiment: NCI screen summary over the cancers tested (negative growth of human cancer cells). To be noted: cancers with negative growth / cancers tested. Here is the method:
as §1
The derivatives in the tables are grouped using the same category as in the tables 1-6.

The subject of assay [10] is KM12. As to the kind of experiment: NCI screen, growth of human tumor cells: Colon Cancer KM12. Here is the method: as §1
Assay [11] has as its system SK-MEL-2. Briefly: NCI screen, growth of human tumor cells: Melanoma SK-MEL-2. The note with it: SK-MEL-2 (Melanoma), 10^−4 molar. Here is the method:
as §1

Assay [12] relates to SK-MEL-5. As to the kind of experiment: NCI screen, growth of human tumor cells: Melanoma SK-MEL-5. The note with it: SK-MEL-5, 10^−4 molar. Here is the method:
as §1

The test system of assay [13] is SNB-75. Briefly: NCI screen, growth of human tumor cells: CNS Cancer SNB-75. The note with it: SNB-75 (CNS Cancer), 10^−4 molar. Here is the method:
as §1

Assay [14] has as its system HOP-92. As to the kind of experiment: NCI screen, growth of human tumor cells: Non-Small Cell Lung HOP-92. The note with it: HOP-92 (Non-Small Cell Lung), 10^−4 molar. Here is the method:
as §1

Assay [15] has as its system NCI-H522. As to the kind of experiment: NCI screen, growth of human tumor cells: Non-Small Cell Lung NCI-H522. The note with it: NCI-H522 (Non-Small Cell Lung), 10^−4 molar. On the procedure: as §1
Assay [16] has as its system HCT-15. As to the kind of experiment: NCI screen, growth of human tumor cells: Colon Cancer HCT-15. To be noted: HCT-15 (Colon Cancer), 10^−4 molar. On the procedure:
as §1

In assay [17] the test system is HOP-62. As to the kind of experiment: NCI screen, growth of human tumor cells: Non-Small Cell Lung HOP-62. The note with it: HOP-62 (Non-Small Cell Lung), 10^−4 molar. On the procedure: as §1
The test system of assay [18] is EKVX. Briefly: NCI screen, growth of human tumor cells: Non-Small Cell Lung EKVX. To be noted: EKVX. Here is the method:
as §1

The test system of assay [19] is HOP-18. Briefly: NCI screen, growth of human tumor cells: Non-Small Cell Lung HOP-18. On the procedure:
as §1

The test system of assay [20] is NCI-H226. Briefly: NCI screen, growth of human tumor cells: Non-Small Cell Lung NCI-H226. Here is the method:
as §1

In the case of “ethylene (2-methyl-2-acetyl)-ethylene-1,1-disulfonate [NSC 698121]”, the “% Growth” value in assay [1] (10^−4 molar) was found to be 18%; in assay [1] (10^−5 molar), 51%; in [1] (10^−6 molar), 61%; in [1] (10^−7 molar), 68%; in [2] (K562, 10^−4 molar) it was 54%; in [2] (K562, 10^−5 molar), 59%. In addition, the “% Growth” value in assay [2] (K562, 10^−6 molar) is given as 54%; in [2] (K562, 10^−7 molar), 52%; in assay [3] (MOLT-4, 10^−4 molar), “(85) %”; in [3] (MOLT-4, 10^−5 molar), 46%; in assay [4] (10^−4 molar), 60%; in assay [4] (10^−5 molar), 31%. Further, the “percent of growth of human tumor cells” value in assay [5] is recorded as 12%; in [6] (SF-295 (CNS Cancer), 10^−4 molar), 24%; in assay [7], 18%; in assay [8], 29%. Also, the “Percentage of cancers showing negative growth cancers tested” value (“Percentage” below) in assay [9] (10^−4 M conc.) is 10^−4 M conc. = 1/8 = 0%.

Take `O=C(c1ccc2ccccc2c1)C1(I)S(=O)(=O)OCCOS1(=O)=O` [NSC 679046]: the “% Growth” value in assay [6] (SF-295, 10^−4 molar) was −52%; in assay [6] (SF-295, 10^−5 molar) it was −58%; in assay [6] (SF-295, 10^−6 molar), −65%; in [6] (SF-295, 10^−7 molar), −56%; in assay [6] (SF-295, 10^−8 molar), 51%. For the same compound, the “Percentage” value amounted to 100% in assay [9] (10^−4 M conc.); 100% in [9] (10^−5 M conc.); 100% in assay [9] (10^−6 M conc.); 100% in [9] (10^−7 M conc.); 0% in assay [9] (10^−8 M conc.).

In the case of `O=C(O)c1ccccc1C(=O)NCC1S(=O)(=O)OCCOS1(=O)=O` [NSC 671537, ethylene (2-carboxy-benzoyl)-N-2-ethane-1,1-disulfonate], the “% Growth” value worked out at 62% in assay [10] (KM12, 10^−4 molar); 54% in [10] (KM12, 10^−5 molar); 45% in assay [10] (KM12, 10^−6 molar); 61% in assay [10] (KM12, 10^−7 molar); 41% in assay [10] (KM12, 10^−8 molar). Besides, in assay [9] (10^−4 M conc.), the “Percentage” value is 10^−4 M conc. = 0/1 = 0%.

On to `O=S1(=O)OCCCOS(=O)(=O)C1(Br)Br` [compound 665940], for which the “% Growth” value is 63% in assay [7] (SF-539, 10^−4 molar); 99% in assay [7] (SF-539, 10^−5 molar); 43% in [7] (SF-539, 10^−6 molar); 62% in assay [7] (SF-539, 10^−7 molar); 47% in [7] (SF-539, 10^−8 molar).

`CN(C)C(=N)N=C(N)N.CS(C)=O.[Cl][Pt][Cl]` [NSC 671543]: the “percent of growth of human tumor cells” value in [11] is listed as 30%.

Take `CC(=O)O[C@H]1CC[C@]2(C)C3C(=O)C[C@]4(C)[C@@H](C(C)=O)CC[C@@]4(C)[C@@H]3CC[C@H]2C1(C)C` (stereo partly drawn) [compound 731278]: the “% Growth” value in assay [12] is −78%.

For `O=S1(=O)OCCOS(=O)(=O)C1=NNc1c(O)cc(S(=O)(=O)O)c2ccccc12` [NSC 686564], the “percent of growth of human tumor cells” value in assay [1] (CCRF-CEM (Leukemia), 10^−4 molar) is 14%; in [3], 23%; in [5] it was 6%; in assay [13], 7%; in [8], 26%. The “Percentage” value in assay [9] (10^−4 M conc.) is listed as 10^−4 M conc. = 0/5 = 0%.

Regarding `O=C1c2ccccc2C(=O)N1CC1S(=O)(=O)OCCOS1(=O)=O` [NSC 671536], the “percent of growth of human tumor cells” value in assay [4] (10^−4 molar) amounted to 15%. Also, the “% Growth” value in assay [10] (KM12, 10^−4 molar) is 50%; in [10] (KM12, 10^−5 molar), 42%; in assay [10] (KM12, 10^−6 molar) it was 39%; in assay [10] (KM12, 10^−7 molar), 59%; in [10] (KM12, 10^−8 molar), 40%. The “Percentage” value in [9] (10^−4 M conc.) is 10^−4 M conc. = 0/2 = 0%.

With `CCCCCCCCOCC1S(=O)(=O)OCCOS1(=O)=O` [NSC 671535], the “percent of growth of human tumor cells” value in assay [4] (10^−4 molar) was 5%. Besides, in assay [9] (10^−4 M conc.), the “Percentage” value was 10^−4 M conc. = 0/1 = 0%.

For the compound “ethylene 2-hydroxy-2-solketalyl-ethylene-1,1-disulfonate [NSC 698123]”, the “% Growth” value in assay [1] (10^−4 molar) turned out to be 32%; in [1] (10^−5 molar) it was 58%; in assay [1] (10^−6 molar) it was 57%; in assay [2] (K562, 10^−4 molar), 63%; in assay [2] (K562, 10^−5 molar) it was 41%; in [7] (SF-539, 10^−4 molar) it was 42%. For the same compound, in assay [7] (SF-539, 10^−5 molar), the “% Growth” value is 50%. Also, the “Percentage” value in assay [9] (10^−4 M conc.) is recorded as 10^−4 M conc. = 0/3 = 0%.

Regarding `CSC(=NC(=O)c1cn([C@H]2O[C@H](COC(C)=O)[C@H]3OC(C)(C)O[C@H]32)c2ccccc12)SC` [NSC 732264], the “percent of growth of human tumor cells” value in [14] came to 22%.

Consider `O=S1(=O)OCCOS(=O)(=O)C1c1nc(Cl)c(Cl)nc1Cl` [NSC 720685], for which the “percent of growth of human tumor cells” value in assay [3] was 24%; in assay [15], −22%; in assay [16], 7%; in [7] it was 7%. The “Percentage” value in assay [9] (10^−4 M conc.) is 10^−4 M conc. = 1/4 = 25%.

For `C[Si](C)(OCCS(=O)(=O)[O-])C(=C1S(=O)(=O)OCCOS1(=O)=O)c1cccc2ccccc12.[Na+]` [MWC 95-8], the “Percentage” value in [9] (10^−4 M conc.) was 10^−4 M conc. = 0/1 = 0%.

Consider `COC(=O)/C=C(\C(=O)OC)C1C(=O)Oc2c(C)c(=O)c3ccccc3n21` (stereo not drawn) [NSC 670993], for which the “percent of growth of human tumor cells” value in [17] is recorded as −53%.

Turning to `Cc1ccc(S(=O)(=O)NC(=O)C2S(=O)(=O)OCCOS2(=O)=O)cc1` [NSC 648303, ethylene(4-methylbenzenesulfonamidocarbonyl)methanedisulfonate], the “% Growth” value in [18] (10^−4 molar) came out at 59%; in assay [18] (10^−5 molar) it was 66%; in assay [18] (10^−6 molar), 69%; in assay [18] (10^−7 molar), 67%; in [18] (10^−8 molar) it was 57%; in assay [19] (HOP-18, 10^−4 molar), 69%. Further, the “% Growth” value is reported as 43% in assay [19] (HOP-18, 10^−5 molar); 39% in assay [19] (HOP-18, 10^−6 molar); 33% in assay [19] (HOP-18, 10^−7 molar); 31% in assay [19] (HOP-18, 10^−8 molar); 16% in [20] (NCI-H226, 10^−4 molar); 37% in assay [20] (NCI-H226, 10^−5 molar). Also, the “% Growth” value in assay [20] (NCI-H226, 10^−6 molar) was 51%; in [20] (NCI-H226, 10^−7 molar) it was 55%; in assay [20] (NCI-H226, 10^−8 molar), 53%. In addition, in [9] (10^−4 M conc.), the “Percentage” value is 10^−4 M conc. = 0/3 = 0%.
